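Results reflect a 48-hour exposure of cells in 96-well plates to compound at five concentrations. TGI is the concentration that stops growth completely.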
Columns and labels:
Experiment in all cases: NCI anticancer screen, dose series, 48 h
RPMI-8226 leukemia = test system: RPMI-8226 leukemia
SF-268 CNS = test system: SF-268 CNS
SK-MEL-2 melanoma = test system: SK-MEL-2 melanoma
SN12C renal = test system: SN12C renal
A549 NSCLC = test system: A549 NSCLC
NCI-H23 lung = test system: NCI-H23 lung
NCI/ADR-RES ovarian = test system: NCI/ADR-RES ovarian
MOLT-4 leukemia = test system: MOLT-4 leukemia
HCT-116 colon = test system: HCT-116 colon
EKVX NSCLC = test system: EKVX NSCLC
IGROV1 ovarian = test system: IGROV1 ovarian
BT-549 breast = test system: BT-549 breast
ACHN renal = test system: ACHN renal
SK-OV-3 ovarian = test system: SK-OV-3 ovarian
OVCAR-4 ovarian = test system: OVCAR-4 ovarian
MDA-N = test system: MDA-N
HCC-2998 colon = test system: HCC-2998 colon
COLO 205 colon = test system: COLO 205 colon
TK-10 renal = test system: TK-10 renal
HOP-62 NSCLC = test system: HOP-62 NSCLC
A498 renal = test system: A498 renal
KM12 colon = test system: KM12 colon
SW-620 colon = test system: SW-620 colon
NCI-H460 lung = test system: NCI-H460 lung
MCF7 breast = test system: MCF7 breast
NCI-H522 lung = test system: NCI-H522 lung
CAKI-1 renal = test system: CAKI-1 renal
HL-60(TB) leukemia = test system: HL-60(TB) leukemia
UACC-257 melanoma = test system: UACC-257 melanoma
HOP-92 NSCLC = test system: HOP-92 NSCLC
MALME-3M melanoma = test system: MALME-3M melanoma
MDA-MB-435 = test system: MDA-MB-435
T-47D breast = test system: T-47D breast
MDA-MB-231 breast = test system: MDA-MB-231 breast
HT29 colon = test system: HT29 colon
DU-145 prostate = test system: DU-145 prostate
HS 578T breast = test system: HS 578T breast
OVCAR-5 ovarian = test system: OVCAR-5 ovarian
786-0 renal = test system: 786-0 renal
SK-MEL-5 melanoma = test system: SK-MEL-5 melanoma
M14 melanoma = test system: M14 melanoma
SK-MEL-28 melanoma = test system: SK-MEL-28 melanoma
UO-31 renal = test system: UO-31 renal
SNB-19 CNS = test system: SNB-19 CNS
NCI-H226 lung = test system: NCI-H226 lung
HCT-15 colon = test system: HCT-15 colon
SF-295 CNS = test system: SF-295 CNS
LOX IMVI melanoma = test system: LOX IMVI melanoma
RXF 393 renal = test system: RXF 393 renal
OVCAR-3 ovarian = test system: OVCAR-3 ovarian
OVCAR-8 ovarian = test system: OVCAR-8 ovarian
CCRF-CEM leukemia = test system: CCRF-CEM leukemia
U251 CNS = test system: U251 CNS
SF-539 CNS = test system: SF-539 CNS
PC-3 prostate = test system: PC-3 prostate
UACC-62 melanoma = test system: UACC-62 melanoma
SNB-75 CNS = test system: SNB-75 CNS

`N=c1c2c3n(c4c(=O)n(-c5ccccc5)c(=S)n(c(=O)n1-c1ccccc1)c24)CCCCC3` showed a TGI (RPMI-8226 leukemia) of over 100 µM, a TGI (SF-268 CNS) of over 100 µM and a TGI (SK-MEL-2 melanoma) of over 100 µM. It also gave a TGI (SN12C renal) of over 100 µM, a TGI (A549 NSCLC) of over 100 µM and a TGI (NCI-H23 lung) of over 100 µM. For the same compound, the TGI (NCI/ADR-RES ovarian) was over 100 µM, the TGI (MOLT-4 leukemia) was over 71.6 µM and the TGI (HCT-116 colon) was over 100 µM. The TGI (EKVX NSCLC) was over 100 µM, the TGI (IGROV1 ovarian) was over 100 µM and the TGI (BT-549 breast) was over 100 µM. For the same compound, the TGI (ACHN renal) was over 100 µM, the TGI (SK-OV-3 ovarian) was over 100 µM and the TGI (OVCAR-4 ovarian) was over 100 µM. It also gave a TGI (MDA-N) of over 100 µM, a TGI (HCC-2998 colon) of over 100 µM and a TGI (COLO 205 colon) of over 100 µM. For the same compound, the TGI (TK-10 renal) was over 100 µM, the TGI (HOP-62 NSCLC) was over 100 µM and the TGI (A498 renal) was over 100 µM. For the same compound, the TGI (KM12 colon) was over 100 µM, the TGI (SW-620 colon) was over 100 µM and the TGI (NCI-H460 lung) was over 100 µM. It also gave a TGI (MCF7 breast) of over 100 µM, a TGI (NCI-H522 lung) of over 100 µM and a TGI (CAKI-1 renal) of over 100 µM. It also gave a TGI (HL-60(TB) leukemia) of over 100 µM, a TGI (UACC-257 melanoma) of over 100 µM and a TGI (HOP-92 NSCLC) of over 100 µM. For the same compound, the TGI (MALME-3M melanoma) was over 100 µM, the TGI (MDA-MB-435) was over 100 µM and the TGI (T-47D breast) was over 100 µM. The TGI (MDA-MB-231 breast) was over 100 µM, the TGI (HT29 colon) was over 100 µM and the TGI (DU-145 prostate) was over 100 µM. It also gave a TGI (HS 578T breast) of over 100 µM, a TGI (OVCAR-5 ovarian) of over 100 µM and a TGI (786-0 renal) of over 100 µM. For the same compound, the TGI (SK-MEL-5 melanoma) was over 100 µM, the TGI (M14 melanoma) was over 100 µM and the TGI (SK-MEL-28 melanoma) was over 100 µM. It also gave a TGI (UO-31 renal) of over 100 µM, a TGI (SNB-19 CNS) of over 100 µM and a TGI (NCI-H226 lung) of over 100 µM. It also gave a TGI (HCT-15 colon) of over 100 µM, a TGI (SF-295 CNS) of over 100 µM and a TGI (LOX IMVI melanoma) of over 100 µM. It also gave a TGI (RXF 393 renal) of over 100 µM, a TGI (OVCAR-3 ovarian) of over 100 µM and a TGI (OVCAR-8 ovarian) of over 100 µM. For the same compound, the TGI (CCRF-CEM leukemia) was over 100 µM, the TGI (U251 CNS) was over 100 µM and the TGI (SF-539 CNS) was over 100 µM. For the same compound, the TGI (PC-3 prostate) was over 100 µM, the TGI (UACC-62 melanoma) was over 100 µM and the TGI (SNB-75 CNS) was over 100 µM.

Source: PubChem BioAssay (NCI)
